This data set is described as follows: Body weight in ovariectomized osteoporosis rat model. It counts as in vivo, Sprague-Dawley (SD) female rats. On the procedure: Inducing osteoporosis animal models and experimental methods: • 1. 6-month old Sprague-Dawley (SD) female rats were purchased; • 2. These rats were divided into 7 groups, of which Group 1 was given pseudo-surgery, Group 2-7 underwent bilateral ovariectomies; • 3. On the 6th day after surgery, 1 mL/kg of vehicle alone was given orally to Group 1, Group 2 daily, Zoledronic Acid and Prolia were administered weekly by injections to Group 3, Group 4, respectively; 1, 3, 10 mg/kg of the compound of formula I was given orally every 3 days to Groups 5-7, respectively; • 4. Body weight and bone density were measured weekly, blood was drawn until the 118th day; • 5. Rats were then sacrificed to obtain kidneys, livers and rat tibia; • 6. Data were consolidated and processed.

`O=P(O)(O)C(O)(Cn1ccnc1)P(=O)(O)O` [Zoledronic acid]: the “effect on body weight” value (ovariectomized rats) was “decreased the body weight”.
Turning to “Proliaor: commercially available drug, injected weekly as comparator in ovariectomized rats”, where the note is “rat, in vivo”, the “effect on body weight” value was “increased the body weight”.

Values taken from patent US20180042874A1, “METHOD FOR TREATING OSTEOPOROSIS” (China Medical University, priority 2016, published 2018).
